Source: patent US20100113596A1, “Method for inhibiting liver fibrosis via retinoic acid derivative” (priority 2008, published 2010)

Columns and labels:
[1] = system: [Ca2+]i in TGF-β treated HSC-T6 cells; assay: Measurement of cytosolic Ca2+ ([Ca2+]i) with fura-2; assay type: cell-based; settings: HSC-T6 cells treated with PL, then TGF-β1 added; compared with positive control
Description: Trypsinized cells (10^6/ml) were recovered 4 h after culture with PL and loaded with 2 μM fura-2/acetoxy methyl (fura-2/AM) for 30 min at 25° C. before stimulating with TGF-β (2ng/ml). Cells were gently shaken for several seconds every 10 min to prevent re-attachment. Cells were washed and resuspended in Ca^2+-containing medium. Fura-2 fluorescence measurements were performed in a water-jacketed cuvette with continuous stirring at 25° C. Fluorescence was monitored with a Hitachi F-2500 fluorescence spectrophotometer by recording excitation signals at), and 380 nm and emission signals at 510 nm at 1-s intervals.
Therefore, we examined whether PL could change the concentration of [Ca^2+]i in TGF-β treated cells. Activation of HSC, the main source of liver collagen, involves the induction of α-SMA, conversing from quiescent to proliferation, and secretion of collagen. After treatment with PL, TGF-β1 was added to HSC-T6 cells and the [Ca^2+]i was measured immediately (FIG. 2). PL decreased the protein levels of α-SMA, which was detected by both flow cytometry and Western blot (FIG. 3). The results imply that a trace amount of PL is sufficient enough to block-[Ca^2+]i and down-regulate α-SMA expression.

[2] = system: TGF-β-induced ROS in HSC-T6 cells; assay: ROS assay on TGF-β1 and PL-treated HSC-T6 cells (DCFH-DA, flow cytometry); assay type: cell-based; settings: pretreatment with 30˜300 nM PL, TGF-β1 2 ng/ml
Description: (§1) Cells were incubated with 2 ng/ml of TGF-β and PL for 5 hours and analyzed for the oxidation state using 7-dichlorodihydrofluorescein diacetate (DCFH-DA) as a fluorogenic probe and flow cytometer (FACSCalibur). The cells were recovered with 0.01% trypsin and the cellular fluorescence intensity was measured after 30 min incubation of 5 μM DCFHDA. For each analysis, 10,000 events were recorded. Cells were collected in 0.01% trypsin, fixed with 3.7% formaldehyde, permeabilized with 0.02% Triton X-100 in PBS, and stained for a-SMA as described previously. For detecting a-SMA using flow cytometry, cells were treated with 2 ng/ml of TGF-β and PL for 12 hours and immunostained with α-SMA-specific antibody (Santa Cruz) and FITC-conjugated secondary antibody (Molecular Probe). Then the cells were recovered and subjected to flow cytometer, and PL can effectively eliminate radicals as ROS decreased with increasing dosages of PL, as referred to FIG. 1.
ROS intermediates act as signaling molecules of TGF-β in regulation of inflammatory and fibrotic responses. Therefore, first select marker was to determine whether PL could be an antioxidant to block TGF-β-induced ROS in HSC-T6 cells. The intracellular oxidation state of the cell was analyzed by flow cytometry, when ROS were induced by TGF-β1 (2 ng/ml). […]

[3] = system: collagen (Col 1A2); assay: Col 1A2 expression, immunostaining of HSC-T6 cells treated with TGF-β and PL; assay type: cell-based; settings: HSC-T6 cells treated with TGF-β and 30, 150 or 300 nM PL for 4 hours
Description: It has been shown that TGF-β plays a major role in fibrogenesis via the activation of HSC. After the HSC-T6 cells were treated with TGF-β and PL for 4 hours, the cells were subjected to immunostaining and observed under a fluorescence microscopy, as shown in FIG. 4.

[4] = system: α-SMA; assay: α-SMA expression in HSC-T6 cells (flow cytometry and Western blot); assay type: cell-based; settings: TGF-β and PL, compared with positive control
Description: as §1
Liver tissues were homogenized in RIPA buffer and centrifuged as described; supernatant was taken as a whole-cell lysate. […]
Therefore, we examined whether PL could change the concentration of [Ca^2+]i in TGF-β treated cells. […] After treatment with PL, TGF-β1 was added to HSC-T6 cells and the [Ca^2+]i was measured immediately (FIG. 2). PL decreased the protein levels of α-SMA, which was detected by both flow cytometry and Western blot (FIG. 3). […]

[5] = system: α-SMA; assay: α-SMA expression in liver tissue of TGF-β1 transferred fibrotic mice; assay type: in vivo; settings: PL i.p. 30, 150 or 300 μg/kg, compared with the positive controls
Description: (§2) The eight-week-old BALB/c mice were fed ad libitum standard laboratory chow and water with or without 25 mM ZnSO4 plus 5% sucrose. PL was given intraperitoneally (i.p.) at 30, 150 or 300 μg/kg. The animals were hydrodynamically injected with pPK9a plasmid containing TGF-β1 gene through tail vein and simultaneously fed with ZnSO4(25 mM) and PL as reported. After 48 h, the mice were sacrificed for liver sections.
(§3) […] of plasmid (pPK9a) was dissolved in 3.0 ml Ringer's solution and injected in bolus into the tail vein in a short duration of 5˜7 seconds according to the hydrodynamics-based transfection protocol as described. ZnSO4(25 mM) was dissolved in the drinking water to activate the metallothionein promoter and stimulate TGF-β1 expression.
Mouse liver tissues were embedded in an optimal cutting temperature compound (Miles Inc.) and frozen in liquid nitrogen. […]

[6] = system: Sp1; assay: Sp1 binding activity (EMSA) in liver of pPK9a-transferred mice fed with ZnSO4 water; assay type: in vivo, mouse; settings: TGF-β1-induced increase
Description: as §2, §3
Since Sp1 is a critical mediator of Col 1A2 expression, we examined the effects of PL on Sp1 binding activity in pPK9a-transferred mice fed with ZnSO4 water.

[7] = system: p-Smad2/3; assay: TGF-β-induced p-Smad2/3 and Smad4 translocation into nucleus (Western blot, immunocytostaining); assay type: cell-based
Excerpt: Translocation of phosphorylated Smad complexes into nucleus is one of the key steps in signal transduction of the liver fibrosis. In activated HSC there is an elevated accumulation of p-Smad2/3 and Smad4 in nucleus. To understand how PL regulates Smad signaling pathway, we first determined the amount of Smad complexes using Western blot.

CC1=C(/C=C/C(C)=C/C=C/C(C)=C/C(=O)O)C(C)(C)CCC1 [PL]
intracellular calcium [Ca2+]i [1]: significantly reduced
ROS generated by TGF-β1 [2]: sufficiently eliminate the ROS generated by TGF-β1 in a dose-dependent manner
expression of Col 1A2 [3]: 0.001%
α-SMA expression [4]: significantly reduced
α-SMA expression in liver tissue [5]: markedly inhibited
Sp1 binding activity [6]: the increase was reversed by PL treatment
amount of p-Smad2/3 in the cell nucleus ([7]; Western blot): decreased the amount of p-Smad2/3 in the cell nucleus in a dose-dependent manner
transport of p-Smad2/3 into cell nucleus ([7]; immunocytostaining): decreased the transport of p-Smad2/3 into cell nucleus also in a dose-dependent manner
